Experimental data published in patent US4073938A, “19,20-Bis-nor-prostenoic acids as hypolipemic compounds” (Istituto Biochimico Italiano di Loredana Lorenzini S.a.s., priority 1974, dated 1978).
Counter-ions that a name gives are not always drawn.

What was measured:
[1] = tested on: ulcer induced by phenylbutazone; assay: Anti-ulcerous activity, ulcer from phenylbutazone (9-keto sodium salt); assay type: in vivo, Female rats of the Wistar stock
Method: The anti-ulcerous activity of the compound in question is tested on an ulcer induced by aspirin and on an ulcer induced by phenyl butazone. In both models the mucous lesions are localized in the glandular section of the stomach. Female rats of the Wistar stock weighing 140-170 g are involved. 24 hours before the start of the test the rats are made to fast, while they are allowed water at will. Each test group consists of 12 animals. For the formation of the ulcer, 200 mg of phenylbutazone/kg in 2 ml of 0.5% gum arabic are administered to the animals orally. 10 minutes before administration of phenylbutazone, and 21/2 hours afterwards, substance in question is administered orally (in 0.5% gum arabic solution) or intravenously (in 0.9% sodium chloride solution) in variable doses (see table). The animals are killed 5 hours after administration of phenylbutazone, the stomachs are prepared and examined under a stereomicroscope, to evaluate the number and size of the lesions.

ulcer induced by aspirin = assay: Anti-ulcerous activity, ulcer from aspirin (9-keto sodium salt); assay type: in vivo, Female rats of the Wistar stock
Method: The anti-ulcerous activity of the compound in question is tested on an ulcer induced by aspirin and on an ulcer induced by phenyl butazone. In both models the mucous lesions are localized in the glandular section of the stomach.
Female rats of the Wistar stock weighing 150-175 g were selected. 24 hours before the start of the test the animals were made to fast, allowing water at will.
Each test group consists of 12 animals. The aspirin is administered orally in the form of a suspension (45 mg in ml of 0.5% carboxymethylcellulose for each animal). The application of the sodium salt in question takes place either intravenously (2 × 5 mg or 1 × 50 mg of substance/kg in 2 ml of 0.9% sodium chloride solution) or orally (2 × 10 mg or 2 × 100 mg of substance/kg in 2 ml of 0.5% carboxymethylcellulose suspension). The first dose is administered 10 minutes before application of the aspirin, and the second dose two and a half hours afterwards. […] The animals are killed 5 hours after application of the aspirin, the stomachs are prepared, and the number and size of the lesions is evaluated with a stereomicroscope.

[2] = Triglyceridemia and cholesterolemia in rats given alcohol 10%; assay type: in vivo, Male Sprague-Dawley rats; details: 1 week endoperitoneal once daily (CPIB, BBA 200 mg/kg; C83 50 mg/kg); for Cholesterolemia: controls 91.5 ± 6.6, alcohol 81.0 ± 4.6; for Triglyceridemia: controls 97.8 ± 5.1, alcohol 169.0 ± 25.0
Method: | Treatment for 1 week CPIB - BBA - 200 mg/kg endoperitoneal; C83 | 50mg/kg endoperitoneal; only one daily administration. | Male Sprague-Dawley rats 150 gr. | Groups of 6 rats.

[3] = Deepness and rapidity test (untitled table 6); assay type: in vivo, Male Sprague-Dawley rats; details: 200 mg/kg endoperitoneal; for Rapidity ± E.S.: controls 3.4 ± 0.3; for Deepness (mm ± E.S.): controls 74.9 ± 6.2
Method: | Treatment with the dose of 200 mg/kg endoperitoneal, one or two hours | before sacrifice. Male Sprague-Dawley rats with an average weight of 150 | gr.

[4] = LD50 by mouth in the mouse; assay type: in vivo; details: in vivo, po
Method: a. LD50 by mouth in the mouse about 3000 mg/kg
25 gr of XVI are dissolved in 400 ml of water with NaOH 15% to pH 9, filtered and lyophilized : 24 gr of sodium salt of XVI as a white solid are obtained, humidity (K. Fisher) 2.08%, no U.V. absorption, equivalent weight found 301.7, I.R. bands at 3400, 1765, 1565, 1460, 1420, 1378 cm^-1.
After 20 hours at 20°, the solvent is evaporated in vacuo, the residue is dissolved in 1300 ml of water treated with 120 ml of acetic acid, extracted with chloroform. After solvent evaporation, 65.1 gr of the compound XVIII are obtained, as an oil, I.R. bands at 3420, 3100, 1710 cm^-1. 35 gr of the compound XVIII are dissolved in 600 ml of water with NaOH to pH 9. The solution is filtered and lyophilized: 35.5 gr of sodium salt of 9-hydroxy-19,20-bis-nor-prostanoic acid are obtained, as white solid, humidity (K.Fisher) 1.73%, no U.V. absorption, equivalent weight found 320, I.R. bands at 3400, 3300, 1565, 1460, 1390 cm^-1, LD50 by mouth in mice about 3000 mg/kg.

## CCCCCCC1=C(CCCCCCC(=O)O)C(=O)CC1 [9-keto-19,20-bis-nor-8(12)-prostenoic acid, sodium salt]
[1]; Rattus norvegicus, iv, 1 × 50 mg/kg
  inhibition at 50 mg/kg: 42.5%
[1]; Rattus norvegicus, iv, 2 × 5 mg/kg
  inhibition at 5 mg/kg: 83.1%
[1]; Rattus norvegicus, po, 2 × 10 mg/kg
  inhibition at 10 mg/kg: 54.9%
[1]; Rattus norvegicus, po, 2 × 100 mg/kg
  inhibition at 100 mg/kg: 80.2%
[1]; i.v., 1 × 50 mg/kg, controls 11.17 ± 2.77
  Ulcer scale (x ± Sx): 6.42 ± 3.41
[1]; i.v., 2 × 5 mg/kg, controls 11.17 ± 2.77, p<0.05
  Ulcer scale (x ± Sx): 3.00 ± 0.92
[1]; orally
  inhibition of ulcerating effect of phenylbutazone (in words): can inhibit the ulcerating effect of phenylbutazone depending on the doses (orally)
[1]; p.o., 2 × 10 mg/kg, controls 9.25 ± 1.81, p<0.05
  Ulcer scale (x ± Sx): 4.17 ± 0.91
[1]; p.o., 2 × 100 mg/kg, controls 9.25 ± 1.81, p<0.01
  Ulcer scale (x ± Sx): 1.83 ± 0.69
Ulcer induced by aspirin; i.v., 1 × 50 mg/kg, p<0.01
  Ulcer scale (x ± Sx): 5.08 ± 2.38
Ulcer induced by aspirin; i.v., 2 × 5 mg/kg
  Ulcer scale (x ± Sx): 11.80 ± 5.1
Ulcer induced by aspirin; oral and intravenous
  inhibition of ulcerating effect of aspirin (in words): inhibits considerably the ulcerating effect of the aspirin in both oral doses, and in the higher doses in the case of intravenous application
Ulcer induced by aspirin; p.o., 2 × 10 mg/kg, controls 17.95 ± 2.98, p<0.05
  Ulcer scale (x ± Sx): 9.25 ± 2.11
Ulcer induced by aspirin; p.o., 2 × 100 mg/kg, controls 17.95 ± 2.98, p<0.01
  Ulcer scale (x ± Sx): 5.83 ± 2.11

## CC(=Cc1ccccc1)CC(=O)O [BBA, β-benzalbutyric acid]
[2]
  Cholesterolemia: 66.5 ± 1.6
  Triglyceridemia: 143.4 ± 17.8

## CCOC(=O)C(C)(C)Oc1ccc(Cl)cc1 [CPIB, clofibrate]
[2]
  Cholesterolemia: 59.7 ± 2.9
  Triglyceridemia: 151.2 ± 10.4

## CC(=O)Oc1ccccc1C(=O)O [aspirin, reference compound]
[3]; 1 hour before sacrifice
  Rapidity ± E.S.: 1.2 ± 0.1
  Deepness (mm ± E.S.): 17.7 ± 2.4 mm
[3]; 2 hours before sacrifice
  Rapidity ± E.S.: 2.5 ± 0.2
  Deepness (mm ± E.S.): 48.4 ± 4.4 mm

## CCCCCCC12CCC(O)C1(CCCCCCC(=O)O)O2 (centres unmarked) [sodium salt of XVI, 9-hydroxy-8(12)-epoxy-19,20-bis-nor prostanoic acid]
[4]
  LD50: ~1500 mg/kg
